Reference: patent US8765944B2, “Compounds for the treatment of hepatitis C” (priority 2010, dated 2014)
pEC50: −log10 of the molar value.

Tested on: HCV pseudoparticles
Assay: HCV pseudoparticle infection assay (luciferase reporter, Huh7 cells)
Assay type: cell-based, HCV (genotype 1b E1 and E2 envelope)
Conditions: Hepatitis C virus, genotype 1b, Huh-7, 48 h, HCV pseudoparticles (genotype 1b), luciferase activity 2 days after infection

Structure (SMILES)	pEC50 (class)	pEC50
CC(C)NCCS(=O)(=O)NC(=O)c1ccc(Nc2nc(NC3(c4ccc(Cl)cc4)CC3)nc(OCC(F)(F)F)n2)cc1 [Example 1035]	7.00 to 9.30	–
CC(F)(F)CC(=O)NS(=O)(=O)CCNC(=O)c1ccc(Nc2nc(NC3(c4ccc(Cl)cc4)CC3)nc(OCC(F)(F)F)n2)cc1 [Example 4003]	7.00 to 9.30	–
COC(=O)NCCS(=O)(=O)NC(=O)c1ccc(Nc2nc(NC3(c4ccc(Cl)cc4)CC3)nc(OCC(F)(F)F)n2)cc1 [Example 1044]	7.00 to 9.30	–
CS(=O)(=O)NC(=O)CCNC(=O)c1ccc(Nc2nc(NC3(c4ccc(Cl)cc4)CC3)nc(OCC(F)(F)F)n2)cc1 [Example 2018]	7.00 to 9.30	–
CC(C)(C)CNCCS(=O)(=O)NC(=O)c1ccc(Nc2nc(NC3(c4ccc(Cl)cc4)CC3)nc(OCC(F)(F)F)n2)cc1 [Example 1033]	7.00 to 9.30	–
C=C[C@@H]1C[C@]1(NC(=O)CCCNC(=O)c1ccc(Nc2nc(NC3(c4ccc(Cl)cc4)CC3)nc(OCC(F)(F)F)n2)cc1)C(=O)NS(=O)(=O)C(C)(C)C [Example 2035]	7.00 to 9.30	–
CC1(C)CCCN1CC1(S(=O)(=O)NC(=O)c2ccc(Nc3nc(NC4(c5ccc(Cl)cc5)CC4)nc(OCC(F)(F)F)n3)cc2)CC1 [Example 1016]	7.00 to 9.30	–
CCCC1(S(=O)(=O)NC(=O)C2(CNC(=O)c3ccc(Nc4nc(NC5(c6ccc(Cl)cc6)CC5)nc(OCC(F)(F)F)n4)cc3)CC2)CC1 [Example 2077]	7.00 to 9.30	–
O=C(NS(=O)(=O)CCNCc1ccccc1)c1ccc(Nc2nc(NC3(c4ccc(Cl)cc4)CC3)nc(OCC(F)(F)F)n2)cc1 [Example 1034]	7.00 to 9.30	–
CC(C)C(=O)NS(=O)(=O)c1ccc(Nc2nc(NC3(c4ccc(Cl)cc4)CC3)nc(OCC(F)(F)F)n2)cc1 [Example 8007]	5.30 to 6.00	5.27
C=CS(=O)(=O)NC(=O)C1(CNC(=O)c2ccc(Nc3nc(NC4(c5ccc(Cl)cc5)CC4)nc(OCC(F)(F)F)n3)cc2)CC1 [Example 2072]	7.00 to 9.30	–
CS(=O)(=O)NC(=O)CCCNC(=O)c1ccc(Nc2nc(NC3(c4ccc(Cl)cc4)CC3)nc(OCC(F)(F)F)n2)cc1 [Example 2019]	7.00 to 9.30	–
O=C(NS(=O)(=O)CCN1CCOCC1)c1ccc(Nc2nc(NC3(c4ccc(Cl)cc4)CC3)nc(OCC(F)(F)F)n2)cc1 [Example 1030]	7.00 to 9.30	–
O=C(NCCS(=O)(=O)NC(=O)c1ccc(Nc2nc(NC3(c4ccc(Cl)cc4)CC3)nc(OCC(F)(F)F)n2)cc1)c1cccnc1 [Example 1043]	7.00 to 9.30	–
O=C(CCCNC(=O)c1ccc(Nc2nc(NC3(c4ccc(Cl)cc4)CC3)nc(OCC(F)(F)F)n2)cc1)NCCC(=O)NS(=O)(=O)C1CC1 [Example 2062]	7.00 to 9.30	–
CC(C)NC(=O)OCC1(S(=O)(=O)NC(=O)c2ccc(Nc3nc(NC4(c5ccc(Cl)cc5)CC4)nc(OCC(F)(F)F)n3)cc2)CC1 [Example 1027]	7.00 to 9.30	–
CC(C)(C)S(=O)(=O)NC(=O)C1(CNC(=O)c2ccc(Nc3nc(NC4(c5ccc(Cl)cc5)CC4)nc(OCC(F)(F)F)n3)cc2)CC1 [Example 2075]	7.00 to 9.30	–
CC(C)S(=O)(=O)NC(=O)COc1ccc(C2(Nc3nc(Nc4ccc(C(=O)NCC5(CN6CCCC6)CC5)cc4)nc(OCC(F)(F)F)n3)CC2)cc1 [Example 6000, 4-(4-(1-(4-(2-(1-methylethylsulfonamido)-2-oxoethoxy)phenyl)cyclopropylamino)-6-(2,2,2-trifluoroethoxy)-1,3,5-triazin-2-ylamino)-N-((1-(pyrrolidin-1-ylmethyl)cyclopropyl)methyl)benzamide]	7.00 to 9.30	–
C=C[C@@H]1C[C@]1(NC(=O)C(C)(C)CNC(=O)c1ccc(Nc2nc(NC3(c4ccc(Cl)cc4)CC3)nc(OCC(F)(F)F)n2)cc1)C(=O)NS(=O)(=O)C1CCC1 [Example 2083]	7.00 to 9.30	–

Structure (SMILES)	pEC50 (class)	pEC50
O=C(NCC1(CN2CCCC2)CC1)c1ccc(Nc2nc(NC3(c4ccc(C(=O)NS(=O)(=O)C5CC5)cc4)CC3)nc(OCC(F)(F)F)n2)cc1 [Example 7001, N-(cyclopropylsulfonyl)-4-(1-(4-(4-((1-(pyrrolidin-1-ylmethyl)cyclopropyl)methylcarbamoyl)phenylamino)-6-(2,2,2-trifluoroethoxy)-1,3,5-triazin-2-ylamino)cyclopropyl)benzamide]	7.00 to 9.30	–
CN(C)CC1(S(=O)(=O)NC(=O)c2ccc(Nc3nc(OCC(F)(F)F)nc(N4CCN(S(=O)(=O)c5ccccc5)CC4)n3)cc2)CC1 [Example 8031]	5.30 to 6.00	–
CS(=O)(=O)NC(=O)CCNC(=O)CCCNC(=O)c1ccc(Nc2nc(NC3(c4ccc(Cl)cc4)CC3)nc(OCC(F)(F)F)n2)cc1 [Example 2059]	7.00 to 9.30	–
CCS(=O)(=O)NC(=O)CCCCNC(=O)c1ccc(Nc2nc(NC3(c4ccc(Cl)cc4)CC3)nc(OCC(F)(F)F)n2)cc1 [Example 2014]	7.00 to 9.30	–
C=C[C@@H]1C[C@]1(NC(=O)CCCCNC(=O)c1ccc(Nc2nc(NC3(c4ccc(Cl)cc4)CC3)nc(OCC(F)(F)F)n2)cc1)C(=O)NS(=O)(=O)C(C)(C)C [Example 2027]	7.00 to 9.30	–
O=C(NS(=O)(=O)CCCCl)c1ccc(Nc2nc(NC3(c4ccc(Cl)cc4)CC3)nc(OCC(F)(F)F)n2)cc1 [Example 1009]	7.00 to 9.30	–
CC(=O)N1CCN(c2nc(Nc3ccc(C(=O)NS(=O)(=O)C4(CN(C)C)CC4)cc3)nc(OCC(F)(F)F)n2)CC1 [Example 8024]	5.30 to 6.00	–
O=C(CN1CCCC1=O)NCC1(C(=O)NS(=O)(=O)c2ccc(Nc3nc(NC4(c5ccc(Cl)cc5)CC4)nc(OCC(F)(F)F)n3)cc2)CC1 [Example 3008]	6.00 to 7.00	6.01
CC(C)(C)OC(=O)N1C[C@@H](NC(=O)c2ccc(Nc3nc(NC4(c5ccc(Cl)cc5)CC4)nc(OCC(F)(F)F)n3)cc2)C[C@@H]1C(=O)NS(=O)(=O)C1CC1 [Example 5000]	7.00 to 9.30	–
CCS(=O)(=O)NC(=O)C1(CNC(=O)c2ccc(Nc3nc(NC4(c5ccc(Cl)cc5)CC4)nc(OCC(F)(F)F)n3)cc2)CC1 [Example 2073]	7.00 to 9.30	–
O=C(CCCNC(=O)c1ccc(Nc2nc(NC3(c4ccc(Cl)cc4)CC3)nc(OCC(F)(F)F)n2)cc1)NS(=O)(=O)C1CC1 [Example 2024]	7.00 to 9.30	–
O=C(NS(=O)(=O)c1ccccc1)c1ccc(Nc2nc(NC3(c4ccc(Cl)cc4)CC3)nc(OCC(F)(F)F)n2)cc1 [Example 8011]	7.00 to 9.30	–
C=CS(=O)(=O)NC(=O)CCNC(=O)c1ccc(Nc2nc(NC3(c4ccc(Cl)cc4)CC3)nc(OCC(F)(F)F)n2)cc1 [Example 2016]	7.00 to 9.30	–
CN(C)S(=O)(=O)NC(=O)C1(CNC(=O)c2ccc(Nc3nc(NC4(c5ccc(Cl)cc5)CC4)nc(OCC(F)(F)F)n3)cc2)CC1 [Example 2078]	7.00 to 9.30	–
O=C(CCCCNC(=O)c1ccc(Nc2nc(NC3(c4ccc(Cl)cc4)CC3)nc(OCC(F)(F)F)n2)cc1)NS(=O)(=O)C1CC1 [Example 2012]	7.00 to 9.30	–
CC(C)(C)OC(=O)N1C[C@@H](NC(=O)c2ccc(Nc3nc(NC4(c5ccc(Cl)cc5)CC4)nc(OCC(F)(F)F)n3)cc2)C[C@@H]1C(=O)NC1(C(=O)NS(=O)(=O)C2CC2)CC1 [Example 5002]	7.00 to 9.30	–
Cc1ccccc1C(=O)N1CCN(c2nc(Nc3ccc(C(=O)NS(=O)(=O)C4(CN(C)C)CC4)cc3)nc(OCC(F)(F)F)n2)CC1 [Example 8040]	5.30 to 6.00	–
CC(C)(CNC(=O)c1ccc(Nc2nc(NC3(c4ccc(Cl)cc4)CC3)nc(OCC(F)(F)F)n2)cc1)C(=O)NS(=O)(=O)C1CC1 [Example 2084]	7.00 to 9.30	8.22
CN(CC1(S(=O)(=O)NC(=O)c2ccc(Nc3nc(NC4(c5ccc(Cl)cc5)CC4)nc(OCC(F)(F)F)n3)cc2)CC1)C1CC1 [Example 1022]	7.00 to 9.30	–
